Measured values reported in US20160000734A1, “METHOD AND COMPOSITIONS OF CIVAMIDE TO TREAT DISEASE OF THE INTESTINES” (WINSTON LABORATORIES, INC., priority 2010, published 2016).
Read-outs that look alike come from different tables or passages of the source.

Experiments:
[1] = dogs; cited from earlier work
[2] = cited from earlier work; for efficacy in painful, inflammatory or allergic disorders: compared with capsaicin compositions; for localized burning and stinging / local adverse effects: compared with capsaicin
Chung animal model = details: oral civamide; cited from earlier work
Formalin animal model = details: oral civamide; cited from earlier work
hot-plate animal model = details: oral civamide; cited from earlier work
normal volunteers = assay: Abdominal distress / gastrointestinal discomfort after oral capsules in normal human volunteers; format: in vivo; details: soft gel capsules (not enteric coated)
[3] = rodents; cited from earlier work

COc1cc(CNC(=O)CCCC/C=C\C(C)C)ccc1O [civamide, cis-8-methyl-N-vanillyl-6-nonenamide]
absorption of an administered oral dose [1]: 8-12% | efficacy in painful, inflammatory or allergic disorders [2]: comparable in efficacy | efficacy in painful, inflammatory or allergic disorders ([2]; listed as Civamide): effective | localized burning and stinging / local adverse effects [2]: significantly less local adverse effects | localized burning and stinging / local adverse effects ([2]; listed as Civamide): significantly less of the localized burning and stinging | analgesia (Chung animal model): effective analgesia | analgesia (Formalin animal model): effective analgesia | analgesia (hot-plate animal model): effective analgesia | abdominal distress / local burning and discomfort in the gastrointestinal tract (normal volunteers): more local burning and discomfort in the gastrointestinal tract than comparable dosages of capsaicin | absorption of an administered oral dose [3]: 8-12%
